What was measured:
[1] = Cmax in Wistar Han rat at 5 mg/kg,po administrated for 24 hrs by LC-MS/MS analysis; assay type: ADME, organism-based; parameters: dose 5 mg/kg, time 24 hrs, route po; conditions: in vivo
[2] = Tmax in Wistar Han rat at 5 mg/kg,po administrated for 24 hrs by LC-MS/MS analysis; assay type: ADME, organism-based; conditions: in vivo
[3] = AUC (0-infinity) in Wistar Han rat at 2 mg/kg,iv administrated for 24 hrs by LC-MS/MS analysis; assay type: ADME, organism-based; parameters: time 24 hrs, dose 2 mg/kg, route iv; conditions: in vivo
[4] = AUC (0-infinity) in Wistar Han rat at 5 mg/kg,po administrated for 24 hrs by LC-MS/MS analysis; assay type: ADME, organism-based; parameters: time 24 hrs, dose 5 mg/kg, route po; conditions: in vivo
[5] = Volume of distribution at steady state in Wistar Han rat at 2 mg/kg,iv administrated for 24 hrs by LC-MS/MS analysis; assay type: ADME, organism-based; conditions: in vivo, read-out: Vdss
[6] = Oral bioavailability in Wistar Han rat at 5 mg/kg administrated for 24 hrs by LC-MS/MS analysis; assay type: ADME, organism-based; conditions: in vivo
[7] = Drug concentration in M22-induced Wistar rat plasma at 12.5 to 100 micromol/kg,po measured upto 24 hrs by LC-MS/MS analysis; assay type: ADME, cell-free; conditions: dose 12.5-100 µmol/kg
[8] = Drug concentration in M22-induced Wistar rat plasma at 12.5 micromol/kg,po measured upto 24 hrs by LC-MS/MS analysis; assay type: ADME, cell-free; conditions: dose 12.5 µmol/kg

Row | Drug uptake [7] | Drug uptake [8] | Structure (SMILES) | Cmax [1] [ng/mL] | Tmax [2] [h] | AUC(0-inf) [3] [ng·h/mL] | AUC(0-inf) [4] [ng·h/mL] | Vd [5] [L/kg] | bioavailability [6] [%]
1 | Active | Not Active | CC(=O)N1c2cnc(NC(=O)O[C@@H](C)C(C)(C)C)nc2C2(CCC(F)(F)CC2)C1(C)C | 145 | 1 | 617 | 709 | 8.76 | 47
2 | – | – | CC(=O)N1CCC(C)(c2ccccc2)c2cc(NC(=O)CCc3cccc(C(F)(F)F)c3)ccc21 (racemic) | 52 | 1 | 694 | 141 | 2.41 | 8

From ChEMBL document CHEMBL5252644, “Discovery of SYD5115, a novel orally active small molecule TSH-R antagonist” (Bioorg Med Chem, 2023)
